Experimental data published in paper PMC3050001 (Science (New York, N.Y.), 2010).

Tests used:
[1] = test system: P. falciparum parasites (Dd2, NITD609-R^Dd2); experiment: [35S]-Met/Cys incorporation assay; assay type: cell-based, Plasmodium falciparum; conditions: P. falciparum Dd2, within one hour
[2] = test system: Dd2^attB parasites expressing mutant PfATP4; experiment: Growth inhibition of transgenic pfatp4 lines
[3] = test system: drug-selected Dd2 parasites (NITD609-R^Dd2, NITD678-R^Dd2); conditions: for cross-resistance in spiroindolone-selected mutants: NITD609- and NITD678-selected Dd2 mutants
[4] = test system: synchronized parasites at ring, trophozoite and schizont stages; experiment: In vitro drug sensitivity assay with synchronized parasites; assay type: cell-based, Plasmodium falciparum
[5] = assay type: in vivo, mice and rats
P. berghei = assay type: in vivo, Plasmodium berghei (mice)
[6] = miniaturized Ames assay
[7] = test system: panel of human G-protein coupled receptors, enzymes and ion channels
[8] = male rats, oral, daily for 14 days
in vivo = conditions: male, rat, po
[9] = test system: P. vivax clinical isolates; experiment: Ex vivo sensitivity assay with fresh clinical isolates
[10] = test system: P. falciparum clinical isolates; experiment: as above; conditions: Plasmodium falciparum, in Homo sapiens
P. falciparum strains = conditions: culture-adapted P. falciparum strains incl. drug-resistant strains

OC(c1cc(C(F)(F)F)nc2c(C(F)(F)F)cccc12)C1CCCCN1 (stereo not drawn) [Mefloquine]
effect on protein synthesis ([35S]-Met/Cys incorporation) [1]: only showed a nominal decrease | potency against wild-type vs transgenic strains [2]: equivalent potency

C[C@@H]1C[C@@H]([C@H](O)CC2CC(=O)NC(=O)C2)C(=O)[C@@H](C)C1 [cycloheximide]
effect on protein synthesis ([35S]-Met/Cys incorporation) [1]: A similar effect was observed

CC(=O)C1=C(O)[C@@H]2[C@H]3c4c[nH]c5cccc(c45)C[C@H]3C(C)(C)N2C1=O [cyclopiazonic acid]
cross-resistance in spiroindolone-selected mutants [3]: no cross-resistance

C/C=C(/C)C(=O)O[C@H]1C(C)=C2[C@H]([C@@H]1OC(=O)CCCCCCC)[C@@](C)(OC(C)=O)C[C@H](OC(=O)CCC)[C@@]1(O)[C@H]2OC(=O)[C@@]1(C)O [thapsigargin]
cross-resistance in spiroindolone-selected mutants [3]: no cross-resistance

C[C@H]1Cc2c([nH]c3cc(Cl)c(F)cc23)[C@@]2(N1)C(=O)Nc1ccc(Cl)cc12 [NITD609]
sensitivity of parasite blood stages ([4]; high concentration, ≈100 × IC50 value): all stages (rings, trophozoites and schizonts) were similarly sensitive | sensitivity of parasite blood stages ([4]; low concentrations, ≈1 or 10 × IC50 value): schizonts were the most susceptible | effect on protein synthesis ([35S]-Met/Cys incorporation) [1]: effectively blocked protein synthesis | volume of distribution ([5]; mice and rats, oral and intravenous administration): moderate | bioavailability ([5]; orally administered): excellent | half-life ([5]; orally administered): long | oral absorption ([5]; orally administered): well absorbed | ED90 (P. berghei; oral, P. berghei mouse model): 2.7 mg/kg | intrinsic mutagenic activity [6]: lacked intrinsic mutagenic activity | binding to off-target panel [7]: no significant binding | adverse events / histopathological findings [8]: no adverse events or significant histopathological findings were observed | AUC(0-t) (in vivo): 29400 to 56500 ng·h/mL | logD (physchem; pH 7.4): 4.6 | pKa (physchem; pKa^2): 10.7 | IC50 ([9]; Plasmodium vivax, in Homo sapiens): < 10 nM | IC50 [10]: < 10 nM | IC50 ([3]; Plasmodium falciparum, DD2, read-out: mean IC50 of drug-selected parasites): 3 to 11 nM | IC50 (P. falciparum strains): 0.5 to 1.4 nM

COc1ccc(C[C@H]2NC[C@H](O)[C@H]2OC(C)=O)cc1 [anisomycin]
effect on protein synthesis ([35S]-Met/Cys incorporation) [1]: A similar effect was observed

CCN(CC)CCCC(C)Nc1ccnc2cc(Cl)ccc12 (stereo not drawn) [Chloroquine, reference compound]
stage-specific sensitivity (ring vs trophozoite) ([9]; P. vivax, drug exposure 20 h, growth determined after 42 hours): significant stage-specific sensitivity

C[C@@H]1CC[C@H]2[C@@H](C)C(=O)O[C@@H]3O[C@@]4(C)CC[C@@H]1[C@]32OO4 [artemisinin]
effect on protein synthesis ([35S]-Met/Cys incorporation) [1]: only showed a nominal decrease | cross-resistance in spiroindolone-selected mutants [3]: None of the selected mutants showed cross-resistance | potency against wild-type vs transgenic strains [2]: equivalent potency

CO[C@H]1O[C@@H]2O[C@@]3(C)CC[C@H]4[C@H](C)CC[C@@H]([C@H]1C)[C@@]24OO3 [Artemether, reference compound]
inhibition of parasite growth ([4]; treatment at 8 nM for 6 hours): Strong inhibition | Survival (P. berghei; 1 × 100 mg/kg oral, control animals 6–7 days): 7.6 days
